# Tested on: human subjects with type 2 diabetes
# Experiment: Long-term randomised, double-blind, placebo-controlled cardiovascular outcomes trial with semaglutide
# [1] = Table 4, coronary and peripheral, semaglutide arms
# [2] = Table 4, individual component of MACE, semaglutide arms
# [3] = Table 4, individual component of MACE, semaglutide vs placebo, Cox model
# [4] = Table 4, MACE incl. revascularisation, hospitalisation for UAP and heart failure, semaglutide arms
# [5] = Table 4, semaglutide vs placebo, Cox model
# [6] = Table 5, under first MACE (CV death, non-fatal MI, non-fatal stroke), semaglutide arms
# [7] = Table 5, MACE = cardiovascular death, non-fatal MI, non-fatal stroke, all subjects, semaglutide arms
# [8] = Table 5 subgroup BMI >30 kg/m^2, semaglutide arms
# [9] = Table 5 subgroup BMI ≤30 kg/m^2, semaglutide arms
# [10] = Table 5 subgroup Ethnic origin: Asian, semaglutide arms
# [11] = Table 5 subgroup Ethnic origin: Black or African-American, semaglutide arms
# [12] = Table 5 subgroup Ethnic origin: Other, semaglutide arms
# [13] = Table 5 subgroup Ethnic origin: White, semaglutide arms
# [14] = Table 5 subgroup Heart failure NYHA class I or no heart failure, semaglutide arms
# [15] = Table 5 subgroup Heart failure NYHA class II or III, semaglutide arms
# [16] = Table 5 subgroup Sex: Female, semaglutide arms
# [17] = Table 5 subgroup Sex: Male, semaglutide arms
# Description: A long-term randomised, double-blind, placebo-controlled, four-armed parallel-group, multicentre, multi-national, safety and efficacy trial was carried out to evaluate cardiovascular and other long-term outcomes with semaglutide in 3,297 human subjects with type 2 diabetes.
# The subjects were randomised to receive once weekly treatment doses of 0.5 mg semaglutide, 1.0 mg semaglutide, or volume-matched placebo, as an add-on to their standard-of-care treatment, wherein administration started with an initial dose escalation step at 0.25 mg semaglutide once weekly for 4 weeks, and for the 1.0 mg semaglutide group an additional 4 week period at 0.5 mg semaglutide once weekly, or their volume-matched placebo, as shown in Table 1. Additional glucose-lowering medications were allowed to be added to the anti-diabetic regimen to maintain target glycaemic control at the discretion of investigator.
# Semaglutide was administered in the form of an aqueous solution comprising semaglutide or placebo, both using a 3 ml disposable pen-injector. This pen-injector was identical for the semaglutide and placebo administrations. This aqueous solution contained 1.34 mg/ml semaglutide, 1.42 mg/ml disodium phosphate dihydrate, 14.0 mg/ml propylene glycol, 5.5 mg/ml phenol, at pH 7.40.
# Injections were administered in the thigh, abdomen or upper arm, at any time of day irrespective of meals. The injections were administered on the same day of the week during the trial.
# In this trial, “clinical evidence of cardiovascular disease” was present when the subject fulfilled at least one criterion selected from the group consisting of a) to h): • a) prior myocardial infarction, • b) prior stroke or transient ischaemic attack, • c) prior coronary, carotid or peripheral arterial revascularisation, • d) >50% stenosis on angiography or imaging of coronary, carotid or lower extremity arteries, • e) history of symptomatic coronary heart disease (documented by e.g. positive exercise stress test or any cardiac imaging or unstable angina with ECG changes), • f) asymptomatic cardiac ischemia (e.g. documented by positive nuclear imaging test or exercise test or stress echo or any cardiac imaging), • g) heart failure New York Heart Association (NYHA) class and • h) chronic renal impairment (documented (prior to screening) by estimated glomerular filtration rate (eGFR)<60 mL/min/1.73 m^2 per MDRD).
# In this trial, “subclinical evidence of cardiovascular disease” was present when the subject fulfilled at least one criterion selected from the group consisting of i) to l): • i) persistent microalbuminuria (30-299 mg/g) or proteinuria, • j) hypertension and left ventricular hypertrophy by ECG or imaging, • k) left ventricular systolic or diastolic dysfunction by imaging, and • l) ankle/brachial index<0.9.
# The results of this trial may be presented herein as a number or fraction of subjects experiencing an event. […] The term “hazard ratio” (also referred to as “HR”) as used herein means the instantaneous risk ratio of experiencing an event when administered semaglutide compared to placebo which are the two treatments in this trial. An upper limit of the 95% confidence interval (CI) for the HR of less than 1.00 means that the estimated treatment ratio between semaglutide and placebo with respect to the event of interest is statistically significant in favour of semaglutide on a 5% significance level.
substance,measurement,setting,value
"N^6.26-{18-[N-(17-carboxy-heptadecanoyl)-L-γ-glutamyl]-10-oxo-3,6,12,15-tetraoxa-9,18-diazaoctadecanoyl}-[8-(2-amino-2-propanoic acid),34-L-arginine]human glucagon-like peptide 1(7-37) [Semaglutide]",Time to first non-fatal myocardial infarction (Kaplan-Meier plot),"FIG. 1, after a certain period of chronic treatment, vs placebo",particularly good effect
same,Time to first revascularisation (Kaplan-Meier plot),"FIG. 2, after a certain period of chronic treatment, vs placebo",particularly good effect
same,"Revascularisation, N subjects with at least one event",[1],83
same,"Revascularisation, percentage of subjects with at least one event",[1],5.0%
same,"Revascularisation, hazard ratio","Table 4, coronary and peripheral, semaglutide vs placebo, Cox model",0.65
same,"Cardiovascular death, N subjects with event",[2],44
same,"Cardiovascular death, percentage of subjects with event",[2],2.7%
same,"Myocardial infarction, non-fatal, N subjects with at least one event",[2],47
same,"Myocardial infarction, non-fatal, percentage of subjects with at least one event",[2],2.9%
same,"Stroke, non-fatal, N subjects with at least one event",[2],27
same,"Stroke, non-fatal, percentage of subjects with at least one event",[2],1.6%
same,"Cardiovascular death, hazard ratio",[3],0.98
same,"Myocardial infarction, non-fatal, hazard ratio",[3],0.74
same,"Stroke, non-fatal, hazard ratio",[3],0.61
same,"Time to first MACE, hazard ratio","Table 4, MACE = CV death, non-fatal MI, non-fatal stroke, revascularisation, hospitalisation for UAP or heart failure, semaglutide vs placebo, Cox model",0.74
same,"First MACE, N subjects experiencing at least one event",[4],199
same,"First MACE, percentage of subjects experiencing at least one event",[4],12.1%
same,"Coronary revascularisation, N subjects with at least one event","Table 4, semaglutide arms",70
same,"Coronary revascularisation, percentage of subjects with at least one event","Table 4, semaglutide arms",4.2%
same,"Hospitalisation for UAP, N subjects with at least one event","Table 4, semaglutide arms",22
same,"Hospitalisation for UAP, percentage of subjects with at least one event","Table 4, semaglutide arms",1.3%
same,"Hospitalisation for heart failure, N subjects with at least one event","Table 4, semaglutide arms",59
same,"Hospitalisation for heart failure, percentage of subjects with at least one event","Table 4, semaglutide arms",3.6%
same,"Peripheral revascularisation, N subjects with at least one event","Table 4, semaglutide arms",16
same,"Peripheral revascularisation, percentage of subjects with at least one event","Table 4, semaglutide arms",1.0%
same,"Coronary revascularisation, hazard ratio",[5],0.68
same,"Hospitalisation for UAP, hazard ratio",[5],0.82
same,"Hospitalisation for heart failure, hazard ratio",[5],1.11
same,"Peripheral revascularisation, hazard ratio",[5],0.63
same,"Cardiovascular death, N subjects",[6],37
same,"Cardiovascular death, percentage of subjects",[6],2.2%
same,"Myocardial infarction, non-fatal, N subjects",[6],46
same,"Myocardial infarction, non-fatal, percentage of subjects",[6],2.8%
same,"Stroke, non-fatal, N subjects",[6],25
same,"Stroke, non-fatal, percentage of subjects",[6],1.5%
same,"First MACE, N subjects experiencing at least one event",[7],108
same,"First MACE, percentage of subjects experiencing at least one event",[7],6.6%
same,"Time to first MACE, hazard ratio","Table 5, MACE = cardiovascular death, non-fatal MI, non-fatal stroke, all subjects, semaglutide vs placebo, Cox model",0.74
same,"Time to first MACE, hazard ratio","Table 5 subgroup BMI >30 kg/m^2, MACE = CV death, non-fatal MI, non-fatal stroke, vs placebo",0.84
same,"First MACE, N subjects with at least one event",[8],69
same,"First MACE, percentage of subjects with at least one event",[8],6.6%
same,"Time to first MACE, hazard ratio","Table 5 subgroup BMI ≤30 kg/m^2, MACE = CV death, non-fatal MI, non-fatal stroke, vs placebo",0.58
same,"First MACE, N subjects with at least one event",[9],39
same,"First MACE, percentage of subjects with at least one event",[9],6.6%
same,"Time to first MACE, hazard ratio","Table 5 subgroup Ethnic origin: Asian, MACE = CV death, non-fatal MI, non-fatal stroke, vs placebo",0.58
same,"First MACE, N subjects with at least one event",[10],2
same,"First MACE, percentage of subjects with at least one event",[10],5.7%
same,"Time to first MACE, hazard ratio","Table 5 subgroup Ethnic origin: Black or African-American, MACE = CV death, non-fatal MI, non-fatal stroke, vs placebo",0.72
same,"First MACE, N subjects with at least one event",[11],5
same,"First MACE, percentage of subjects with at least one event",[11],4.6%
same,"Time to first MACE, hazard ratio","Table 5 subgroup Ethnic origin: Other, MACE = CV death, non-fatal MI, non-fatal stroke, vs placebo",0.46
same,"First MACE, N subjects with at least one event",[12],93
same,"First MACE, percentage of subjects with at least one event",[12],6.7%
same,"Time to first MACE, hazard ratio","Table 5 subgroup Ethnic origin: White, MACE = CV death, non-fatal MI, non-fatal stroke, vs placebo",0.76
same,"First MACE, N subjects with at least one event",[13],8
same,"First MACE, percentage of subjects with at least one event",[13],6.6%
same,"Time to first MACE, hazard ratio","Table 5 subgroup Heart failure NYHA class I or no heart failure, MACE = CV death, non-fatal MI, non-fatal stroke, vs placebo",0.64
same,"First MACE, N subjects with at least one event",[14],73
same,"First MACE, percentage of subjects with at least one event",[14],5.4%
same,"Time to first MACE, hazard ratio","Table 5 subgroup Heart failure NYHA class II or III, MACE = CV death, non-fatal MI, non-fatal stroke, vs placebo",1.03
same,"First MACE, N subjects with at least one event",[15],35
same,"First MACE, percentage of subjects with at least one event",[15],12.3%
same,"Time to first MACE, hazard ratio","Table 5 subgroup Sex: Female, MACE = CV death, non-fatal MI, non-fatal stroke, vs placebo",0.84
same,"First MACE, N subjects with at least one event",[16],35
same,"First MACE, percentage of subjects with at least one event",[16],5.5%
same,"Time to first MACE, hazard ratio","Table 5 subgroup Sex: Male, MACE = CV death, non-fatal MI, non-fatal stroke, vs placebo",0.68
same,"First MACE, N subjects with at least one event",[17],73
same,"First MACE, percentage of subjects with at least one event",[17],7.2%
same,"First MACE, N subjects with at least one event","Table 6, 0.5 mg semaglutide once weekly arm",59
same,"Time to first MACE, hazard ratio","Table 6, 0.5 mg semaglutide once weekly arm vs its placebo, MACE = CV death, non-fatal MI, non-fatal stroke",0.77
same,"First MACE, N subjects with at least one event","Table 6, 1.0 mg semaglutide once weekly arm",49
same,"Time to first MACE, hazard ratio","Table 6, 1.0 mg semaglutide once weekly arm vs its placebo, MACE = CV death, non-fatal MI, non-fatal stroke",0.71
same,Effect on reducing cardiovascular disease,"overall conclusion of the trial, more pronounced in some subgroups",surprisingly good effect on reducing cardiovascular disease

# Source: US12569543B2, “Semaglutide in cardiovascular conditions” (Novo Nordisk A/S, priority 2016, dated 2026)
